Measured values reported in publication PMC3240648, “Inhibition of Influenza A Virus (H1N1) Fusion by Benzenesulfonamide Derivatives Targeting Viral Hemagglutinin” (PLoS ONE, 2011).
“Also recorded” adds a separate entry of the source.

How the values were obtained:
influenza virus [1] = format: cell-based; details: for reduction of virus yield: 3.16 µM, 48 hours, MDCK, TCID50
[2] = molecular target: hemagglutinin of influenza virus (Influenza A virus (H1N1), UniProt Q0HD60); format: cell-based; details: for effect on hemolysis (negative controls): data not shown
[3] = system: Influenza A/PR/8/34 (H1N1); assay: microbe, parasite or virus in culture; format: cell-based; details: MDCK, 72 h, read-out: CPE (EC50) A/PR/8/34 (H1N1)
[4] = system: Influenza A/Weiss/43 (H1N1); format: cell-based, Influenza A virus
[5] = molecular target: Bromelain-cleaved HA (BHA) (Influenza A virus (H1N1), UniProt Q0HD60); format: biochemical
[6] = system: Influenza A/Human/Hubei/3/2005 (H3N2); assay: microbe, parasite or virus in culture; format: cell-based, Influenza A virus; details: for EC50: Influenza A virus, H3N2, MDCK, 72 h, read-out: CPE (EC50) A/Human/Hubei/3/2005 (H3N2)
[7] = system: Influenza A/Mal/302/54 (H1N1); assay: microbe, parasite or virus in culture; format: cell-based; details: H1N1, MDCK, 72 h, read-out: CPE (EC50) A/Mal/302/54 (H1N1)
[8] = system: Influenza A/Hongkong/8/68 (H3N2); assay: microbe, parasite or virus in culture; format: cell-based, Influenza A virus; details: for EC50: Influenza A virus, H3N2, MDCK, 72 h, read-out: CPE (EC50) A/Hongkong/8/68 (H3N2)
[9] = system: Influenza A/Weiss/43 (H1N1); format: cell-based, Influenza A virus; remark: listed apart in the source
[10] = system: viral hemagglutinin binding to sialic acid receptors of chicken erythrocytes; format: cell-based, influenza virus; details: 10 µM, regardless of viral dilution; data not shown
[11] = Repeated oral dosing of mice without virus challenge (survival, body weight); format: in vivo; details: 200 mg/kg and 50 mg/kg orally twice a day for 7 days, monitored 14 days
Description: Survival of the treated animals and body weight were monitored for 14 days starting from the first day of compound dosing.

in vivo = details: male, CD-1, mouse
[12] = system: Influenza A/New Jersey/8/76 (H1N1); assay: microbe, parasite or virus in culture; format: cell-based; details: H1N1, MDCK, 72 h, read-out: CPE (EC50) A/New Jersey/8/76 (H1N1)
influenza virus [13] = assay: microbe, parasite or virus in culture; format: cell-based; details: unidentified influenza virus, read-out: in vitro EC90
[14] = mouse, in vivo

Sequence of hemagglutinin of influenza virus (Q0HD60 18-343, added parts left off): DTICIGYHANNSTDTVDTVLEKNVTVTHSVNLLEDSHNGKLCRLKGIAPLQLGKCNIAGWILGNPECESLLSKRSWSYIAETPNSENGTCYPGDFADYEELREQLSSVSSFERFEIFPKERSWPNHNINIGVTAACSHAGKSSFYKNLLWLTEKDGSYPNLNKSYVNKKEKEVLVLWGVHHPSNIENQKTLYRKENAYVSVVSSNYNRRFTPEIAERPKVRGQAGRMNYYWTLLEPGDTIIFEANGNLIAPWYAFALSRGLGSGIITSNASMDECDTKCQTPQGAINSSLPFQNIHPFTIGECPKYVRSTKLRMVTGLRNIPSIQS
Sequence of Bromelain-cleaved HA (BHA) (Q0HD60 18-343, added parts left off): as above

In the case of CCOC(=O)C1=C[C@@H](OC(CC)CC)[C@H](NC(C)=O)[C@@H](N)C1 [Oseltamivir], the “reduction of virus yield” value (influenza virus [1]) is reported as 5 log and the “effect on hemolysis (negative controls)” value [2] is reported as “did not show any effect on hemolysis”.

With CC1(C)CC(O)CC(C)(CNc2cccc(S(N)(=O)=O)c2)C1 (stereo not shown) [RO5464466, 3-[(5-Hydroxy-1,3,3-trimethyl-cyclohexylmethyl)-amino]-benzenesulfonamide] the EC50 [3] was 580 nM, the plaque formation [4] was “completely protected cell monolayer against cell death (no visible plaques); also recorded: still inhibited virus infection” and the BHA trypsin sensitivity [5] was “+”. The “protection of BHA from trypsin digestion after acidification” value (shortened to “protection of BHA from trypsin digestion”) [5] was “completely protected HA from trypsin digestion”, the “protection of BHA from trypsin-caused degradation at different pH” value [5] was “effectively protected BHA from trypsin-caused degradation throughout the tested pH values, except pH 4.5” and the “inhibitory effect on replication of A/Human/Hubei/3/2005 (H3N2) in CPE assay” value [6] was “failed to exhibit an apparent inhibitory effect”. For the same compound, the EC50 [6] was > 100000 nM, the EC50 [7] was 660 nM and the “dynamics of progeny virus production” value (influenza virus [1]) was “strong inhibition at all time points”. The “reduction of virus yield” value (influenza virus [1]) was 8 log, the “inhibitory effect on replication of A/Hongkong/8/68 (H3N2) in CPE assay” value [8] was “failed to exhibit an apparent inhibitory effect” and the EC50 [8] was > 100000 nM. The “effect on virus replication in one cycle” value [9] was “completely blocks virus replication”, the HA-mediated hemolysis ([2]; 10 µM, pH 5.03, 5.05, 5.1 and 5.2) was “completely blocked” and the “inhibitory effect on hemagglutination” value [10] was “did not have an inhibitory effect on hemagglutination”.

With CC1(C)C[C@H](O)C[C@](C)(CNc2ccc(Cl)c(S(N)(=O)=O)c2)C1 [RO5487624] the EC50 [3] was 210 nM, the “animal death and body weight changes” value [11] was “did not find any animal death and statistically significant body weight changes” and the BHA trypsin sensitivity [5] was “+”. The “protection of BHA from trypsin digestion” value [5] was “completely protected HA from trypsin digestion”, the EC50 [6] was > 100000 nM and the EC50 [7] was 450 nM. The EC50 [8] was > 100000 nM, the bioavailability (in vivo) was > 70% and the AUC(0-inf) (in vivo; iv, 2 mg/kg) was 629 ng·h/mL. It also gave an AUC(0-t) (in vivo; iv, 2 mg/kg) of 587 ng·h/mL, an EC50 [12] of 90 nM and an EC90 (influenza virus [13]) of 300 nM. The “C max and AUC in plasma versus oral dose” value [14] was “increased in a dose-dependent manner”.

In the case of NC(=O)c1ncn([C@@H]2O[C@H](CO)[C@@H](O)[C@H]2O)n1 [Ribavirin], the “protection of BHA from trypsin digestion” value [5] is reported as “failed to show a protective effect on BHA”, the “dynamics of progeny virus production” value (influenza virus [1]) is reported as “became weaker” and the “inhibition of progeny virus production” value (influenza virus [1]) is reported as “strongly inhibited progeny virus production”. The “effect on hemolysis (negative controls)” value [2] was “did not show any effect on hemolysis”.
